Assay results as given in ChEMBL document CHEMBL1201862, “PubChem BioAssay data set” (2004).
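All cell lines were grown in 96-well plates and treated with compound for 48 hours. GI50 = concentration required for 50% inhibition of growth.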 Activity calls are given as the source filed them. Cut-off read from the data, not from the text of the source: active = GI50 up to about 1.1 µM and inactive = higher.

Key:
Test in all cases: NCI tumour cell line growth inhibition, 48 h
SK-MEL-2 = tested on: SK-MEL-2
UACC-62 = tested on: UACC-62
SF-268 = tested on: SF-268
BT-549 = tested on: BT-549
HOP-62 = tested on: HOP-62
TK-10 = tested on: TK-10
UACC-257 = tested on: UACC-257
MOLT-4 = tested on: MOLT-4
OVCAR-8 = tested on: OVCAR-8
T47D = tested on: T47D
SK-MEL-28 = tested on: SK-MEL-28
HL-60 = tested on: HL-60
NCI-H226 = tested on: NCI-H226
NCI/ADR-RES = tested on: NCI/ADR-RES
UO-31 = tested on: UO-31
HOP-92 = tested on: HOP-92
PC-3 = tested on: PC-3
OVCAR-4 = tested on: OVCAR-4
SR = tested on: SR
OVCAR-3 = tested on: OVCAR-3
CCRF-CEM = tested on: CCRF-CEM
M14 = tested on: M14
OVCAR-5 = tested on: OVCAR-5
SF-295 = tested on: SF-295
HCC 2998 = tested on: HCC 2998
A498 = tested on: A498
SF-539 = tested on: SF-539
U-251 = tested on: U-251
RPMI-8226 = tested on: RPMI-8226
SN12C = tested on: SN12C
MCF7 = tested on: MCF7
K562 = tested on: K562
ACHN = tested on: ACHN
HCT-116 = tested on: HCT-116
DU-145 = tested on: DU-145
MDA-MB-435 = tested on: MDA-MB-435
Malme-3M = tested on: Malme-3M
CAKI-1 = tested on: CAKI-1
A549 = tested on: A549
KM12 = tested on: KM12
SK-OV-3 = tested on: SK-OV-3
SNB-19 = tested on: SNB-19
786-0 = tested on: 786-0
MDA-N = tested on: MDA-N
Hs-578T = tested on: Hs-578T
NCI-H23 = tested on: NCI-H23
COLO 205 = tested on: COLO 205
HCT-15 = tested on: HCT-15
EKVX = tested on: EKVX
NCI-H522 = tested on: NCI-H522
NCI-H460 = tested on: NCI-H460
RXF 393 = tested on: RXF 393
HT-29 = tested on: HT-29
MDA-MB-231 = tested on: MDA-MB-231
SK-MEL-5 = tested on: SK-MEL-5
SNB-75 = tested on: SNB-75
LOX IMVI = tested on: LOX IMVI
SW-620 = tested on: SW-620
IGROV-1 = tested on: IGROV-1

## N#CC(/N=N/c1ccc(Cl)cc1)c1nc2ccccc2o1 (stereo not given)
SK-MEL-2
  GI50: 28.7 µM (inactive)
UACC-62
  GI50: 20.6 µM (inactive)
SF-268
  GI50: 33.3 µM (inactive)
BT-549
  GI50: 32.6 µM (inactive)
HOP-62
  GI50: 38.3 µM (inactive)
TK-10
  GI50: 56.6 µM (inactive)
UACC-257
  GI50: > 100 µM (inactive)
MOLT-4
  GI50: 20.5 µM (inactive)
OVCAR-8
  GI50: 88.1 µM (inactive)
T47D
  GI50: 7.71 µM (inactive)
SK-MEL-28
  GI50: > 100 µM (inactive)
HL-60
  GI50: 33.7 µM (inactive)
NCI-H226
  GI50: > 100 µM (inactive)
NCI/ADR-RES
  GI50: > 100 µM (inactive)
UO-31
  GI50: > 100 µM (inactive)
HOP-92
  GI50: 17.7 µM (inactive)
PC-3
  GI50: 77.6 µM (inactive)
OVCAR-4
  GI50: 30.2 µM (inactive)
SR
  GI50: 43.7 µM (inactive)
OVCAR-3
  GI50: 37.9 µM (inactive)
CCRF-CEM
  GI50: 21.1 µM (inactive)
M14
  GI50: > 100 µM (inactive)
OVCAR-5
  GI50: > 100 µM (inactive)
SF-295
  GI50: 27.9 µM (inactive)
HCC 2998
  GI50: 33 µM (inactive)
A498
  GI50: 49 µM (inactive)
SF-539
  GI50: 24.6 µM (inactive)
U-251
  GI50: 29.6 µM (inactive)
RPMI-8226
  GI50: 15.7 µM (inactive)
SN12C
  GI50: > 100 µM (inactive)
MCF7
  GI50: > 100 µM (inactive)
K562
  GI50: 15.5 µM (inactive)
ACHN
  GI50: 32.9 µM (inactive)
HCT-116
  GI50: 56.4 µM (inactive)
DU-145
  GI50: > 100 µM (inactive)
MDA-MB-435
  GI50: > 100 µM (inactive)
Malme-3M
  GI50: 34.6 µM (inactive)
CAKI-1
  GI50: > 100 µM (inactive)
A549
  GI50: > 100 µM (inactive)
KM12
  GI50: 89.7 µM (inactive)
SK-OV-3
  GI50: 32.7 µM (inactive)
SNB-19
  GI50: 42.7 µM (inactive)
786-0
  GI50: 62.2 µM (inactive)
MDA-N
  GI50: > 100 µM (inactive)
Hs-578T
  GI50: 42.7 µM (inactive)
NCI-H23
  GI50: 25.6 µM (inactive)
COLO 205
  GI50: 22.3 µM (inactive)
HCT-15
  GI50: > 100 µM
EKVX
  GI50: 34.5 µM (inactive)
NCI-H522
  GI50: 10.6 µM (inactive)
NCI-H460
  GI50: > 100 µM (inactive)
RXF 393
  GI50: 37.6 µM (inactive)
HT-29
  GI50: > 100 µM (inactive)
MDA-MB-231
  GI50: 37 µM (inactive)
SK-MEL-5
  GI50: > 100 µM (inactive)

## COc1ccc(/C=C/C=C2C(=O)NC(=S)NC2=O)cc1
SK-MEL-2
  GI50: 16.1 µM (inactive)
UACC-62
  GI50: 3.07 µM (inactive)
SF-268
  GI50: 4.68 µM (inactive)
BT-549
  GI50: 2.05 µM (inactive)
HOP-62
  GI50: 19.4 µM (inactive)
TK-10
  GI50: 2.52 µM (inactive)
UACC-257
  GI50: 9.62 µM (inactive)
MOLT-4
  GI50: 2.64 µM (inactive)
OVCAR-8
  GI50: 4.03 µM (inactive)
T47D
  GI50: 34.9 µM (inactive)
SK-MEL-28
  GI50: 1.76 µM (inactive)
HL-60
  GI50: 0.805 µM (active)
NCI-H226
  GI50: 15.7 µM (inactive)
NCI/ADR-RES
  GI50: 3.3 µM (inactive)
UO-31
  GI50: 7.45 µM (inactive)
HOP-92
  GI50: 12.8 µM (inactive)
PC-3
  GI50: 12.6 µM (inactive)
OVCAR-4
  GI50: 31.2 µM (inactive)
SR
  GI50: 1.35 µM (inactive)
SNB-75
  GI50: 17.7 µM (inactive)
OVCAR-3
  GI50: 6.78 µM (inactive)
CCRF-CEM
  GI50: 1.59 µM (inactive)
M14
  GI50: 10.1 µM (inactive)
OVCAR-5
  GI50: 21 µM (inactive)
SF-295
  GI50: 16.2 µM (inactive)
HCC 2998
  GI50: 8.15 µM (inactive)
LOX IMVI
  GI50: 1.89 µM (inactive)
A498
  GI50: 33.9 µM (inactive)
SF-539
  GI50: 4.41 µM (inactive)
U-251
  GI50: 2.16 µM (inactive)
SW-620
  GI50: 1.78 µM (inactive)
RPMI-8226
  GI50: 4.91 µM (inactive)
SN12C
  GI50: 7.35 µM (inactive)
MCF7
  GI50: 7.74 µM (inactive)
K562
  GI50: 2.21 µM (inactive)
ACHN
  GI50: 5.08 µM (inactive)
HCT-116
  GI50: 4.7 µM (inactive)
DU-145
  GI50: 6.03 µM (inactive)
MDA-MB-435
  GI50: 2.59 µM (inactive)
Malme-3M
  GI50: 3.34 µM (inactive)
CAKI-1
  GI50: 9.95 µM (inactive)
A549
  GI50: 20.3 µM (inactive)
KM12
  GI50: 8.79 µM (inactive)
SK-OV-3
  GI50: 17.7 µM (inactive)
SNB-19
  GI50: 7.59 µM (inactive)
786-0
  GI50: 2.35 µM (inactive)
MDA-N
  GI50: 4.07 µM (inactive)
Hs-578T
  GI50: 6.44 µM (inactive)
NCI-H23
  GI50: 9.71 µM (inactive)
COLO 205
  GI50: 3.83 µM (inactive)
HCT-15
  GI50: 3.64 µM
IGROV-1
  GI50: 3.91 µM (inactive)
EKVX
  GI50: 8.91 µM (inactive)
NCI-H460
  GI50: 12.5 µM (inactive)
RXF 393
  GI50: 4.35 µM (inactive)
HT-29
  GI50: 5.77 µM (inactive)
MDA-MB-231
  GI50: 2.11 µM (inactive)
SK-MEL-5
  GI50: 13.3 µM (inactive)

## CCC(C#N)NC(=O)NC(C#N)CC (stereo not given)
SK-MEL-2
  GI50: > 100 µM (inactive)
UACC-62
  GI50: > 100 µM (inactive)
SF-268
  GI50: > 100 µM (inactive)
BT-549
  GI50: > 100 µM (inactive)
HOP-62
  GI50: > 100 µM (inactive)
TK-10
  GI50: > 100 µM (inactive)
UACC-257
  GI50: > 100 µM (inactive)
MOLT-4
  GI50: 28.5 µM (inactive)
OVCAR-8
  GI50: > 100 µM (inactive)
T47D
  GI50: > 100 µM (inactive)
HL-60
  GI50: > 100 µM (inactive)
NCI-H226
  GI50: > 100 µM (inactive)
NCI/ADR-RES
  GI50: > 100 µM (inactive)
UO-31
  GI50: 58.5 µM (inactive)
HOP-92
  GI50: 31.7 µM (inactive)
PC-3
  GI50: 91.8 µM (inactive)
OVCAR-4
  GI50: 33.6 µM (inactive)
SR
  GI50: > 100 µM (inactive)
OVCAR-3
  GI50: > 100 µM (inactive)
CCRF-CEM
  GI50: > 100 µM (inactive)
M14
  GI50: > 100 µM (inactive)
OVCAR-5
  GI50: > 100 µM (inactive)
SF-295
  GI50: > 100 µM (inactive)
HCC 2998
  GI50: > 100 µM (inactive)
LOX IMVI
  GI50: > 100 µM (inactive)
A498
  GI50: > 100 µM (inactive)
SF-539
  GI50: > 100 µM (inactive)
U-251
  GI50: > 100 µM (inactive)
SW-620
  GI50: > 100 µM (inactive)
RPMI-8226
  GI50: > 100 µM (inactive)
SN12C
  GI50: > 100 µM (inactive)
MCF7
  GI50: > 100 µM (inactive)
K562
  GI50: 50.9 µM (inactive)
ACHN
  GI50: > 100 µM (inactive)
HCT-116
  GI50: > 100 µM (inactive)
DU-145
  GI50: > 100 µM (inactive)
MDA-MB-435
  GI50: > 100 µM (inactive)
Malme-3M
  GI50: > 100 µM (inactive)
CAKI-1
  GI50: > 100 µM (inactive)
A549
  GI50: 77.3 µM (inactive)
KM12
  GI50: > 100 µM (inactive)
SK-OV-3
  GI50: > 100 µM (inactive)
SNB-19
  GI50: > 100 µM (inactive)
786-0
  GI50: > 100 µM (inactive)
MDA-N
  GI50: > 100 µM (inactive)
Hs-578T
  GI50: > 100 µM (inactive)
NCI-H23
  GI50: > 100 µM (inactive)
COLO 205
  GI50: > 100 µM (inactive)
HCT-15
  GI50: > 100 µM
IGROV-1
  GI50: > 100 µM (inactive)
EKVX
  GI50: > 100 µM (inactive)
NCI-H522
  GI50: > 100 µM (inactive)
NCI-H460
  GI50: > 100 µM (inactive)
RXF 393
  GI50: > 100 µM (inactive)
HT-29
  GI50: > 100 µM (inactive)
MDA-MB-231
  GI50: > 100 µM (inactive)
SK-MEL-5
  GI50: > 100 µM (inactive)
